Test results: BindingDB's records for doi:10.1021/acschembio.7b00489 (Michigan State University, 2017)
Where “and” joins values, the source holds several entries; their conditions need not be identical. Equal values may be shown once. Where a name gives a salt, the structure may show the parent alone.

Experiments:
[1] = target: Proteasome subunit alpha type-6 (Homo sapiens, UniProt P60900); experiment: Proteasome Activity Assay; details: pH 7.5; 37 °C
Protocol: Activity assays were carried out in a 200 uL reaction volume. Different concentrations of test compounds were added to a black flat/clear bottom 96-well plate containing 1 nM of either human constitutive 20S proteasome or 26S proteasome, in 50 mM Tris-HCl at pH 7.5 and allowed to sit for 10 min at RT. Fluorogenic substrates were then added and the enzymatic activity measured at 37 °C on a SpectraMax M5e spectrometer by measuring the change in fluorescence unit per minute for 1 h at 380−460 nm. The fluorescence units for the vehicle control were set at a 100%, and the ratio of drug-treated sample set to that of vehicle control was used to calculate the fold change in enzymatic activity.

[2] = target: Dopamine D2 receptor (Homo sapiens); experiment: Human embryonic kidney (HEK-293) cells were plated in 100 mm plates and transfected with pcDNA3.1-D2R using Lipofectamine 2000 (Invitrogen; Waltham, MA) according to the manufacturer's instructions. Radioligand binding assays were performed 24 h after transfection essentially as described.

Sequence of Proteasome subunit alpha type-6 (P60900 whole entry): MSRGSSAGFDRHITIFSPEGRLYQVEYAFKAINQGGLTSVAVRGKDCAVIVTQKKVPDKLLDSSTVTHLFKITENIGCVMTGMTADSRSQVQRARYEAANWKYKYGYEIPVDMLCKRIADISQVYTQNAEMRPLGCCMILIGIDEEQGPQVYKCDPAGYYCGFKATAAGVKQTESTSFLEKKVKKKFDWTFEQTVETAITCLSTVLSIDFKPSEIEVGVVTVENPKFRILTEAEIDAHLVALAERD

Structure (SMILES) | EC50 [1] | Ki [2]
CSc1ccc2c(c1)N(CC[C@@H]1CCCCN1C)c1ccccc1S2 [10-[2-(1-Methyl-piperidin-2-yl)-ethyl]-2-methylsulfanyl-10H-phenothiazine (thioridazine)] | 12 µM | 
O=S(=O)(O)CCCCN1c2ccccc2Sc2ccc(Cl)cc21 [CPZ analog, 2] | 6.3 µM | > 250 µM
Clc1ccc2c(c1)N(CCCCN1CCOCC1)c1ccccc1S2 [CPZ analog, 5] | 8.9 µM | > 2.97 µM
O=C(O)C#CCN1c2ccccc2Sc2ccc(Cl)cc21 [CPZ analog, 6] | > 25 µM | > 250 µM
COC(=O)c1ccc(CN2c3ccccc3Sc3ccc(Cl)cc32)cc1 [CPZ analog, 8] | 15.6 µM | > 250 µM
CN(C)CCCN1c2ccccc2Sc2ccc(C(F)(F)F)cc21 [TRIFLUPROMAZINE] | 7.8 µM | 

Second part, the compound after the results:

EC50 [1] | Ki [2] | Structure (SMILES)
12.4 µM |  | CN(C)CCCN1c2ccccc2CCc2ccc(Cl)cc21 [CLOMIPRAMINE HYDROCHLORIDE]
> 25 µM | > 250 µM | CC(C)CCCN1c2ccccc2Sc2ccc(Cl)cc21 [CPZ analog, 1]
> 25 µM |  | O=S(=O)(O)CCCN1c2ccccc2Sc2ccc(Cl)cc21 [CPZ analog, 3]
> 25 µM |  | O=S(=O)(O)CCCCCN1c2ccccc2Sc2ccc(Cl)cc21 [CPZ analog, 4]
6.4 µM | > 250 µM | O=C(O)c1ccc(CN2c3ccccc3Sc3ccc(Cl)cc32)cc1 [CPZ analog, 7]
11.9 µM |  | CN1CCCC(CC2c3ccccc3Sc3ccccc32)C1 (centres undefined) [METHIXENE]
14.8 µM and 9.9 µM |  | CN(C)CCCN1c2ccccc2Sc2ccc(Cl)cc21 [[3-(2-Chloro-phenothiazin-10-yl)-propyl]-dimethyl-amine(Chlorpromazine)]
